Results as given in US6737383B1, “Herbicidal oxadiazolidines” (priority 1999, dated 2004).

How the values were obtained:
[1] = system: crabgrass; assay: Test B pre/postemergence crabgrass; type: in vivo, Digitaria sanguinalis
Method in brief: (§1)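 Test chemicals in a non-phytotoxic solvent mixture with surfactant were sprayed preemergence onto planted seeds and postemergence onto plants 2 to 18 cm tall (1- to 4-leaf stage). After twelve to sixteen days in a greenhouse, injury was visually rated against untreated controls from 0 (no effect) to 10 (complete control).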

[2] = system: velvetleaf; assay: Test B pre/postemergence velvetleaf; type: in vivo, Abutilon theophrasti; conditions: for Plant response rating, Velvetleaf: Postemergence
Method in brief: as §1

[3] = system: blackgrass; assay: Test B pre/postemergence blackgrass; type: in vivo, Alopecurus myosuroides
Method in brief: as §1

[4] = system: corn; assay: Test B pre/postemergence corn; type: in vivo, Zea mays
Method in brief: as §1

[5] = system: bedstraw; assay: Test B pre/postemergence bedstraw; type: in vivo, Galium aparine; conditions: Preemergence
Method in brief: as §1

[6] = system: soybean; assay: Test B pre/postemergence soybean; type: in vivo, Glycine max; conditions: for Plant response rating, Soybean: Postemergence
Method in brief: as §1

[7] = system: wheat; assay: Test B pre/postemergence wheat; type: in vivo, Triticum aestivum; conditions: for Plant response rating, Wheat: Postemergence
Method in brief: as §1

[8] = system: giant foxtail; assay: Test B pre/postemergence giant foxtail; type: in vivo, Setaria faberii
Method in brief: as §1

[9] = system: sugar beet; assay: Test B pre/postemergence sugar beet; type: in vivo, Beta vulgaris; conditions: for Plant response rating, Sugarbeets: Postemergence
Method in brief: as §1

[10] = system: cocklebur; assay: Test B pre/postemergence cocklebur; type: in vivo, Xanthium strumarium
Method in brief: as §1

[11] = system: pigweed; assay: Test B pre/postemergence pigweed; type: in vivo, Amaranthus retroflexus; conditions: for Plant response rating, Redroot pigweed: Postemergence; for Redroot pigweed plant response rating: Preemergence
Method in brief: as §1

[12] = system: wild oat; assay: Test B pre/postemergence wild oat; type: in vivo, Avena fatua; conditions: for Plant response rating, Wild oats: Postemergence
Method in brief: as §1

[13] = system: rape; assay: Test B pre/postemergence rape; type: in vivo, Brassica napus
Method in brief: as §1

[14] = system: morningglory; assay: Test B pre/postemergence morningglory; type: in vivo, Ipomoea hederacea
Method in brief: as §1

[15] = system: purple nutsedge; assay: Test B pre/postemergence purple nutsedge; type: in vivo, Cyperus rotundus
Method in brief: as §1

[16] = system: surinam grass; assay: Test B pre/postemergence surinam grass; type: in vivo, Brachiaria decumbens
Method in brief: as §1

[17] = Postemergence, Rate 62 g/ha, scale of 0 to 10, 0 is no effect, 10 is complete control
[18] = Postemergence, Rate 125 g/ha, scale 0 to 10, 0 is no effect, 10 is complete control
[19] = Postemergence, Rate 500 g/ha, scale of 0 to 10 where 0 is no effect and 10 is complete control
[20] = Preemergence, Rate 62 g/ha, scale 0 to 10 (0 no effect, 10 complete control)
[21] = Preemergence, Rate 125 g/ha, scale 0 to 10, 0 is no effect, 10 is complete control
[22] = Preemergence, Rate 500 g/ha, scale of 0 to 10 where 0 is no effect and 10 is complete control
[23] = Rate 500 g/ha, scale of 0 to 10 where 0 is no effect and 10 is complete control
[24] = Rate 250 g/ha, scale of 0 to 10 where 0 is no effect and 10 is complete control
[25] = Rate 250 g/ha, Postemergence, scale of 0 to 10 where 0 is no effect and 10 is complete control
[26] = Rate 62 g/ha, scale 0 to 10 (0 no effect, 10 complete control)
[27] = Rate 125 g/ha, scale 0 to 10, 0 is no effect, 10 is complete control

CC(C)=CCn1c(=O)on(C(=O)N(c2ccccc2)C(C)C)c1=O [Compound 574]
Crabgrass plant response rating [1, 17]: 0 | Crabgrass plant response rating [1, 18]: 2 | Plant response rating, Crabgrass [1, 19]: 2 | Crabgrass plant response rating [1, 20]: 2 | Crabgrass plant response rating [1, 21]: 9 | Crabgrass plant response rating (0 to 10 scale) ([1]; Preemergence, Rate 250 g/ha): 9 | Crabgrass plant response rating [1, 22]: 9 | Plant response rating, Velvetleaf [2, 23]: 2 | Velvetleaf plant response rating [2, 20]: 0 | Velvetleaf plant response rating [2, 21]: 0 | Velvetleaf plant response rating (0 to 10 scale) ([2]; Preemergence, Rate 250 g/ha): 2 | Velvetleaf plant response rating [2, 22]: 2 | Plant response rating, Velvetleaf [2, 24]: 2 | Blackgrass plant response rating [3, 17]: 2 | Blackgrass plant response rating [3, 18]: 6 | Blackgrass plant response rating [3, 20]: 0 | Blackgrass plant response rating [3, 21]: 0 | Blackgrass plant response rating (0 to 10 scale) ([3]; Preemergence, Rate 250 g/ha): 2 | Blackgrass plant response rating [3, 22]: 2 | Plant response rating, Blackgrass [3, 25]: 6 | Corn plant response rating [4, 17]: 0 | Corn plant response rating [4, 18]: 0 | Plant response rating, Corn [4, 19]: 0 | Corn plant response rating [4, 20]: 0 | Corn plant response rating [4, 21]: 0 | Corn plant response rating (0 to 10 scale) ([4]; Preemergence, Rate 250 g/ha): 0 | Corn plant response rating [4, 22]: 0 | Plant response rating, Corn [4, 25]: 0 | Bedstraw plant response rating [5, 26]: 0 | Bedstraw plant response rating [5, 27]: 0 | Bedstraw plant response rating (0 to 10 scale) ([5]; Rate 250 g/ha): 0 | Bedstraw plant response rating [5, 23]: 0 | Plant response rating, Soybean [6, 23]: 7 | Soybean plant response rating [6, 20]: 0 | Soybean plant response rating [6, 21]: 0 | Soybean plant response rating (0 to 10 scale) ([6]; Preemergence, Rate 250 g/ha): 0 | Soybean plant response rating [6, 22]: 0 | Plant response rating, Soybean [6, 24]: 6 | Plant response rating, Wheat [7, 23]: 2 | Wheat plant response rating [7, 20]: 0 | Wheat plant response rating [7, 21]: 0 | Wheat plant response rating (0 to 10 scale) ([7]; Preemergence, Rate 250 g/ha): 0 | Wheat plant response rating [7, 22]: 0 | Plant response rating, Wheat [7, 24]: 0 | Giant foxtail plant response rating [8, 17]: 2 | Giant foxtail plant response rating [8, 18]: 7 | Plant response rating, Giant foxtail [8, 19]: 8 | Giant foxtail plant response rating [8, 20]: 9 | Giant foxtail plant response rating [8, 21]: 10 | Giant foxtail plant response rating (0 to 10 scale) ([8]; Preemergence, Rate 250 g/ha): 10 | Giant foxtail plant response rating [8, 22]: 10 | Plant response rating, Giant foxtail [8, 25]: 6 | Plant response rating, Sugarbeets [9, 23]: 0 | Sugarbeets plant response rating [9, 20]: 0 | Sugarbeets plant response rating [9, 21]: 0 | Sugarbeets plant response rating (0 to 10 scale) ([9]; Preemergence, Rate 250 g/ha): 0 | Sugarbeets plant response rating [9, 22]: 3 | Plant response rating, Sugarbeets [9, 24]: 0 | Cocklebur plant response rating [10, 17]: 0 | Cocklebur plant response rating [10, 18]: 2 | Plant response rating, Cocklebur [10, 19]: 2 | Cocklebur plant response rating [10, 20]: 0 | Cocklebur plant response rating [10, 21]: 0 | Cocklebur plant response rating (0 to 10 scale) ([10]; Preemergence, Rate 250 g/ha): 0 | Cocklebur plant response rating [10, 22]: 0 | Plant response rating, Cocklebur [10, 25]: 2 | Plant response rating, Redroot pigweed [11, 23]: 5 | Redroot pigweed plant response rating [11, 26]: 0 | Redroot pigweed plant response rating [11, 27]: 0 | Redroot pigweed plant response rating [11, 23]: 9 | Plant response rating, Redroot pigweed [11, 24]: 0 | Plant response rating, Wild oats [12, 23]: 0 | Wild oats plant response rating [12, 20]: 0 | Wild oats plant response rating [12, 21]: 0 | Wild oats plant response rating (0 to 10 scale) ([12]; Preemergence, Rate 250 g/ha): 0 | Wild oats plant response rating [12, 22]: 3 | Plant response rating, Wild oats [12, 24]: 0 | Rape plant response rating [13, 17]: 0 | Rape plant response rating [13, 18]: 0 | Plant response rating, Rape [13, 19]: 3 | Rape plant response rating [13, 20]: 0 | Rape plant response rating [13, 21]: 0 | Rape plant response rating (0 to 10 scale) ([13]; Preemergence, Rate 250 g/ha): 0 | Rape plant response rating [13, 22]: 0 | Plant response rating, Rape [13, 25]: 0 | Morningglory plant response rating [14, 17]: 10 | Morningglory plant response rating [14, 18]: 10 | Plant response rating, Morningglory [14, 19]: 10 | Morningglory plant response rating [14, 20]: 0 | Morningglory plant response rating [14, 21]: 0 | Morningglory plant response rating (0 to 10 scale) ([14]; Preemergence, Rate 250 g/ha): 0 | Morningglory plant response rating [14, 22]: 0 | Plant response rating, Morningglory [14, 25]: 10 | Nutsedge plant response rating [15, 17]: 0 | Plant response rating, Nutsedge [15, 19]: 0 | Nutsedge plant response rating [15, 20]: 0 | Nutsedge plant response rating [15, 21]: 0 | Nutsedge plant response rating (0 to 10 scale) ([15]; Preemergence, Rate 250 g/ha): 0 | Nutsedge plant response rating [15, 22]: 0 | Plant response rating, Nutsedge [15, 25]: 0 | B. signalgrass plant response rating [16, 17]: 0 | B. signalgrass plant response rating [16, 18]: 0 | Plant response rating, B. signalgrass [16, 19]: 0 | B. signalgrass plant response rating [16, 20]: 4 | B. signalgrass plant response rating [16, 21]: 7 | B. signalgrass plant response rating (0 to 10 scale, 0 is no effect, 10 is complete control) ([16]; Preemergence, Rate 250 g/ha): 10 | B. signalgrass plant response rating [16, 22]: 9 | Plant response rating, B. signalgrass [16, 25]: 0
